Test [1] deals with T1, FAK (Homo sapiens, UniProt Q05397). The test can be described thus: Cell-based capture ELISA for inhibition of FAK autophosphorylation [pY397] in MiaPaCa2 cells. How it is done: Cell-Based Assays for Inhibition of FAK Autophosphorylation: MiaPaCa2 and U87MG
ELISA kit from Invitrogen (KHO0441).
Reagents Provided in Biosource FAK [pY397]
The cells were then suspended in cell assay medium.
(An ELISA detects its analyte on a solid surface through an enzyme-linked reagent.)

Test [2] has as its target T1, FAK. The experiment in a line: biochemical.
Where [3] appears, read: MIA-PaCa2 cells on fibronectin, 2 h, no plasma, read-out: Mean FAK Cell Mechanistic IC50 MIA-PaCa2.
[4] abbreviates: MIA-PaCa2 cells, + 50% human plasma, read-out: Mean FAK Cell Mechanistic IC50 + 50% hP MIA-PaCa2.
Where [5] appears, read: MIA-PaCa2 cells, + 50% mouse plasma (Table 2), read-out: Mean FAK Cell Mechanistic IC50 + 50% mP MIA-PaCa2.

Where only a bound is given, the exact number is not on record here.

Ten molecules from patent US9096624B2 (OSI Pharmaceuticals, LLC, priority 2009, dated 2015) can be followed below.

Usually IC50 stands for the point on the concentration scale where inhibition reaches its midpoint.

T1 sequence (Q05397 whole entry): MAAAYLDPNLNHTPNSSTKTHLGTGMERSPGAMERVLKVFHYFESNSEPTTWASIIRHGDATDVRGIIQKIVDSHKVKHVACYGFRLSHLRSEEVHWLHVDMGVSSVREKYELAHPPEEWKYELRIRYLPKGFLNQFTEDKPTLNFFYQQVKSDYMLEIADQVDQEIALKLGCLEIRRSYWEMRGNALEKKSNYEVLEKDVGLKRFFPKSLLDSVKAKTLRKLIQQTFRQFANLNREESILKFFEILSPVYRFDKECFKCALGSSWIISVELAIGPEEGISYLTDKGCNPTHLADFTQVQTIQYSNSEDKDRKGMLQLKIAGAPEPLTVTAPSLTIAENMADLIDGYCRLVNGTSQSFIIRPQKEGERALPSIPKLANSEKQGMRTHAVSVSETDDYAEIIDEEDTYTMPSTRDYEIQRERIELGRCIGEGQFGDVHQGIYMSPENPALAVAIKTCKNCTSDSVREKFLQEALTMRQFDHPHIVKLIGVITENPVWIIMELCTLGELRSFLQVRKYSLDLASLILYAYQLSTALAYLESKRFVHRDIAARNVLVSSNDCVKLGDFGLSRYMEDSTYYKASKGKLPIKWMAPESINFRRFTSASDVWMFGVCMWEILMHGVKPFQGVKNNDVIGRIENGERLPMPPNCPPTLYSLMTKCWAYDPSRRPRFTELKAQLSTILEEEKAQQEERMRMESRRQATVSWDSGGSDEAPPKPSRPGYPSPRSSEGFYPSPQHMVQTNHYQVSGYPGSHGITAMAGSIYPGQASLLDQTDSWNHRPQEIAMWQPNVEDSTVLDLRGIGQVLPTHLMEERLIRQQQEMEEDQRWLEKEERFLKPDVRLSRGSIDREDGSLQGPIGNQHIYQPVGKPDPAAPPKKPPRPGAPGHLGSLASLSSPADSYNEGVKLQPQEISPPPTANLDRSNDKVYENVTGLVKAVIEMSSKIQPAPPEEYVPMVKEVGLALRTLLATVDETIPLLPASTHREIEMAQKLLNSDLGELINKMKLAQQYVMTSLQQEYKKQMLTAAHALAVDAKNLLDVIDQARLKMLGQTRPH

As to `CCOP(C)(=O)Cc1ccc(Nc2ncc(C(F)(F)F)c(NCc3cccnc3N(C)S(C)(=O)=O)n2)cc1` (stereo not drawn) [Example 45, Ethyl methyl[4-({4-[({2-[methyl(methylsulfonyl)amino]pyridin-3-yl}methyl)amino]-5-(trifluoromethyl)pyrimidin-2-yl}amino)benzyl]phosphinate], the half-inhibitory concentration (IC50) at FAK [1] (setting [3]), on FAK [1] (setting [4]) and on FAK [2] was less than 1 µM throughout.

With `CCOP(=O)(Cc1ccc(Nc2ncc(C(F)(F)F)c(NCc3cccc([S+](C)[O-])c3)n2)cc1)OCC` (stereo not drawn) [Example 47, diethyl (4-{[4-{[3-(methylsulfinyl)benzyl]amino}-5-(trifluoromethyl)pyrimidin-2-yl]amino}benzyl)phosphonate], the IC50 on FAK [1] (setting [5]) is 1 to 10 µM; against FAK [2] it was less than 1 µM.

Take `CCOP(=O)(Cc1ccc(Nc2ncc(Cl)c(Nc3ccccc3C(=O)NC)n2)cc1)OCC` [Example 48, Diethyl {4-[(5-chloro-4-{[2-(methylcarbamoyl)phenyl]amino}pyrimidin-2-yl)amino]benzyl}phosphonate]: the values for the half-inhibitory concentration (IC50) on FAK [1] (setting [5]) and against FAK [2] were 1 to 10 µM and less than 1 µM, respectively.

As to `CCOP(=O)(Cc1ccc(Nc2ncc(Br)c(Nc3ccccc3C(=O)NC)n2)cc1)OCC` [Example 49, Diethyl {4-[(5-bromo-4-{[2-(methylcarbamoyl)phenyl]amino}pyrimidin-2-yl)amino]benzyl}phosphonate], the IC50 on FAK [1] (setting [3]), on FAK [1] (setting [4]) and on FAK [2] was less than 1 µM throughout.

In the case of `CCOP(=O)(Cc1ccc(Nc2ncc(C(F)(F)F)c(NCc3cccnc3N(C)S(C)(=O)=O)n2)cc1)c1ccccc1` (stereo not drawn) [Example 50, Ethyl [4-({4-[({2-[methyl(methylsulfonyl)amino]pyridin-3-yl}methyl)amino]-5-(trifluoromethyl)pyrimidin-2-yl}amino)benzyl]phenylphosphinate], the IC50 was 1 to 10 µM at FAK [1] (setting [5]) and less than 1 µM against FAK [2].

Regarding `CCOP(=O)(Cc1cccc(Nc2ncc(C(F)(F)F)c(NCc3cccnc3N(C)S(C)(=O)=O)n2)c1)c1ccccc1` (stereo not drawn) [Example 51, Ethyl [3-({4-[({2-[methyl(methylsulfonyl)amino]pyridin-3-yl}methyl)amino]-5-(trifluoromethyl)pyrimidin-2-yl}amino)benzyl]phenylphosphinate], the figures for the IC50 at FAK [1] (setting [5]) and on FAK [2] were greater than 10 µM and less than 1 µM, respectively.

Regarding `CCOP(C)(=O)Cc1ccc(Nc2ncc(C(F)(F)F)c(Nc3ccccc3C(=O)NC)n2)c(OC)c1` (stereo not drawn) [Example 52, Ethyl (3-methoxy-4-{[4-{[2-(methylcarbamoyl)phenyl]amino}-5-(trifluoromethyl)pyrimidin-2-yl]amino}benzyl)methylphosphinate], the IC50 at FAK [1] (setting [3]), on FAK [1] (setting [4]) and at FAK [2] was less than 1 µM in each case.

For `CCCCOP(=O)(Cc1cccc(Nc2ncc(C(F)(F)F)c(NCc3cccnc3N(C)S(C)(=O)=O)n2)c1)OCCCC` [Example 54, dibutyl [3-({4-[({2-[methyl(methylsulfonyl)amino]pyridin-3-yl}methyl)amino]-5-(trifluoromethyl)pyrimidin-2-yl}amino)benzyl]phosphonate], the IC50 was greater than 10 µM at FAK [1] (setting [5]) and less than 1 µM against FAK [2].

Regarding `CN(c1ncccc1CNc1nc(Nc2cccc(CP(=O)(OCC(C)(C)C)OCC(C)(C)C)c2)ncc1C(F)(F)F)S(C)(=O)=O` [Example 55, bis(2,2-dimethylpropyl) [3-({4-[({2-[methyl(methylsulfonyl)amino]pyridin-3-yl}methyl)amino]-5-(trifluoromethyl)pyrimidin-2-yl}amino)benzyl]phosphonate], the IC50 at FAK [1] (setting [5]) is greater than 10 µM; at FAK [2], less than 1 µM.

Take `COP(=O)(Cc1cccc(Nc2ncc(C(F)(F)F)c(NCc3cccnc3N(C)S(C)(=O)=O)n2)c1)OC` [Example 56, dimethyl [3-({4-[({2-[methyl(methylsulfonyl)amino]pyridin-3-yl}methyl)amino]-5-(trifluoromethyl)pyrimidin-2-yl}amino)benzyl]phosphonate]: the IC50 on FAK [1] (setting [3]), at FAK [1] (setting [4]) and against FAK [2] was less than 1 µM each time.
